# Target: Melanocortin receptor 4 (Homo sapiens, UniProt P32245)
# Test: Displacement of [125I]NDPMSH from human MC4 receptor expressed in HEK293 cells after 2 hrs by liquid scintillation counting
# Format: cell-based
# Conditions: not given
# Melanocortin receptor 4, sequence (P32245 whole entry): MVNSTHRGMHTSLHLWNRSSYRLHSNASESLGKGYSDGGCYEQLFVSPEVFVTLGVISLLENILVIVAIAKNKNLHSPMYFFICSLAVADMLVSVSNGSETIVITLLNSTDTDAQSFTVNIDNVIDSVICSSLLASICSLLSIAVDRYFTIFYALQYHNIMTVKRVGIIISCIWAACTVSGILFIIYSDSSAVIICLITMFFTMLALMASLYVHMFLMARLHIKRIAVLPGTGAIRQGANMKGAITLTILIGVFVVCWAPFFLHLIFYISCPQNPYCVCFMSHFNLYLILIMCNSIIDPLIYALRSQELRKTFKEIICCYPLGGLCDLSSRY
row,Ki [nM],Structure (SMILES)
1,5500,O=C(CNC(=O)[C@H]1CNC[C@H]1C(=O)NCCc1c[nH]c2ccccc12)c1ccccc1
2,900,O=C(NCc1ccccc1)[C@@H]1CNC[C@H]1C(=O)NCc1ccccc1
3,5300,NCCNC(=O)[C@@H]1CNC[C@H]1C(=O)NC(=O)c1ccccc1
4,6600,O=C(NCc1ccccc1)[C@@H]1CNC[C@H]1C(=O)Nc1cccc(-c2ccccc2)c1
5,670,O=C(NCCc1cccc(Cl)c1)[C@H]1CN(CC2CC2)C[C@H]1C(=O)NC1CCN(Cc2ccccc2)C1 (mixture of isomers)
6,380,O=C(NCCc1ccc(Cl)cc1)[C@H]1CN(CC2CC2)C[C@H]1C(=O)NC1CCN(Cc2ccccc2)C1 (mixture of isomers)
7,160,O=C(NCCc1ccc(Cl)cc1Cl)[C@H]1CN(CC2CC2)C[C@H]1C(=O)NC1CCN(Cc2ccccc2)C1 (mixture of isomers)
8,400,O=C(NCc1cccc(Cl)c1)[C@H]1CN(CC2CC2)C[C@H]1C(=O)NC1CCN(Cc2ccccc2)C1 (mixture of isomers)
9,1000,O=C(NCCc1ccccc1)[C@H]1CN(CCOc2ccccc2)C[C@H]1C(=O)NC1CCN(Cc2ccccc2)C1 (mixture of isomers)

# Second part, the molecule before the results:
row,Structure (SMILES),Ki [nM]
1,O=C(NCCCc1ccccc1)[C@H]1CNC[C@H]1C(=O)NCc1ccc(C(F)(F)F)cc1,5800
2,O=C(NCc1ccccc1)[C@H]1CNC[C@H]1C(=O)NCCc1c[nH]c2ccccc12,5500
3,O=C(NCCc1ccccc1)[C@@H]1CNC[C@H]1C(=O)NCc1ccccc1,1000
4,O=C(NCCc1cccc(F)c1)[C@H]1CN(CC2CC2)C[C@H]1C(=O)NC1CCN(Cc2ccccc2)C1 (mixture of isomers),1800
5,O=C(NCc1ccc(Cl)cc1Cl)[C@H]1CN(CC2CC2)C[C@H]1C(=O)NC1CCN(Cc2ccccc2)C1 (mixture of isomers),70
6,O=C(NCCc1ccccc1)[C@H]1CN(CC2CC2)C[C@H]1C(=O)NC1CCN(Cc2ccccc2)C1 (mixture of isomers),2600
7,O=C(NCCc1ccccc1)[C@H]1CN(CCO)C[C@H]1C(=O)NC1CCN(Cc2ccccc2)C1 (mixture of isomers),6200
8,O=C(NCCc1ccccc1)[C@H]1CNC[C@H]1C(=O)NC1CCN(Cc2ccccc2)C1 (stereo in doubt; 3a),5000

# Same assay, conditions: hek293
row,Ki [nM],Structure (SMILES)
1,5000,O=C(NCCc1ccccc1)[C@H]1CNC[C@H]1C(=O)NC1CCN(Cc2ccccc2)C1 (mixture of isomers)

# Reference: ChEMBL document CHEMBL2034840, “Automated generation of turn mimetics: proof of concept study for the MC4 receptor” (Bioorg Med Chem, 2012)
